Measured values: patent US8067231B2 (priority 2005, dated 2011)

System: Neuro-2A
Type: cell-based, mouse

CC1=C(/C=C/C(C)=C/C=C/C(C)=C/C(=O)O)C(C)(C)CCC1 [all trans retinoic acid, All Trans-Retinoic acid]
BoNT/A SNAP25197-cleavage product (uptake of BoNT/A) after differentiation reagent treatment: increase
